The results in this text go back to PubChem BioAssay AID248 (DTP/NCI, 2004).

Where “and” joins values, the source holds several entries; their conditions need not be identical. Equal values may be shown once. Toxic doses and inconclusive results are not listed.

The test has as its system L1210 leukemia ip in BDF1 mice, survival T/C. The experiment in a line: NCI In Vivo Anticancer Drug Screen. Data for tumor model L1210 Leukemia (intraperitoneal) in B6D2F1 (BDF1) mice. Conditions: higher = longer survival. Summed up:
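Read-out is survival time, reported as the treated-group measurement over the vehicle-control measurement.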

Setting [1] is: endpoint: mean survival time, dose: 100.0 mg/kg/injection, schedule: Q01DX001 (ip), vehicle: saline.
Where [2] appears, read: endpoint: mean survival time, dose: 200.0 mg/kg/injection, schedule: Q01DX009 (ip), vehicle: saline with Tween-80.
The mark [3] stands for this setting: endpoint: mean survival time, dose: 100.0 mg/kg/injection, schedule: Q01DX001 (ip), vehicle: carboxymethylcellulose (CMC).
Where [4] appears, read: endpoint: mean survival time, dose: 200.0 mg/kg/injection, schedule: Q01DX001 (ip), vehicle: carboxymethylcellulose (CMC).
Where [5] appears, read: endpoint: mean survival time, dose: 400.0 mg/kg/injection, schedule: Q01DX001 (ip), vehicle: carboxymethylcellulose (CMC).

As to `NC(N)=N/N=C(/c1ccccc1)c1ccc(F)cc1`, the T/C is 95 % of control (endpoint: mean survival time, dose: 6.25 mg/kg/injection, schedule: Q01DX009 (ip), vehicle: carboxymethylcellulose (CMC)); 97 % of control (endpoint: mean survival time, dose: 12.5 mg/kg/injection, schedule: Q01DX009 (ip), vehicle: carboxymethylcellulose (CMC)); 95 % of control (endpoint: mean survival time, dose: 15.0 mg/kg/injection, schedule: Q01DX Z (ip), vehicle: saline); 107 % of control (endpoint: mean survival time, dose: 15.0 mg/kg/injection, schedule: Q01DX Z (oral), vehicle: saline); 107 % of control (endpoint: mean survival time, dose: 20.0 mg/kg/injection, schedule: Q01DX001 (ip), vehicle: other); 94 % of control (endpoint: mean survival time, dose: 20.0 mg/kg/injection, schedule: Q01DX009 (ip), vehicle: carboxymethylcellulose (CMC)). Besides, the T/C (endpoint: mean survival time, dose: 20.0 mg/kg/injection, schedule: Q01DX009 (ip), vehicle: other) is 103 % of control; the T/C (endpoint: mean survival time, dose: 25.0 mg/kg/injection, schedule: Q01DX009 (ip), vehicle: carboxymethylcellulose (CMC)) is 103 % of control; the T/C (endpoint: mean survival time, dose: 30.0 mg/kg/injection, schedule: Q01DX Z (ip), vehicle: saline) was 108 % of control; the T/C (endpoint: mean survival time, dose: 30.0 mg/kg/injection, schedule: Q01DX Z (oral), vehicle: saline) is 107 % of control; the T/C (endpoint: mean survival time, dose: 40.0 mg/kg/injection, schedule: Q01DX001 (ip), vehicle: other) was 110 % of control; the T/C (endpoint: mean survival time, dose: 40.0 mg/kg/injection, schedule: Q01DX009 (ip), vehicle: carboxymethylcellulose (CMC)) is 94 % of control. The T/C runs as follows: (endpoint: mean survival time, dose: 40.0 mg/kg/injection, schedule: Q01DX009 (ip), vehicle: other) 90 % of control; (endpoint: mean survival time, dose: 50.0 mg/kg/injection, schedule: Q01DX009 (ip), vehicle: carboxymethylcellulose (CMC)) 115 % of control; (endpoint: mean survival time, dose: 80.0 mg/kg/injection, schedule: Q01DX009 (ip), vehicle: carboxymethylcellulose (CMC)) 118 % of control.
As to `Cc1ccnc(N=Cc2ccccc2)c1`, the T/C runs as follows: (endpoint: mean survival time, dose: 50.0 mg/kg/injection, schedule: Q01DX001 (ip), vehicle: saline) 89 % of control; under setting [1], 101 % of control.
Consider `S=c1[nH]c(Cc2ccccc2)cs1`, for which the T/C runs as follows: (endpoint: mean survival time, dose: 100.0 mg/kg/injection, schedule: Q01DX001 (sc), vehicle: carboxymethylcellulose (CMC)) 103 % of control; (endpoint: mean survival time, dose: 200.0 mg/kg/injection, schedule: Q01DX001 (sc), vehicle: carboxymethylcellulose (CMC)) 105 % of control; (endpoint: mean survival time, dose: 400.0 mg/kg/injection, schedule: Q01DX001 (sc), vehicle: carboxymethylcellulose (CMC)) 103 % of control.
On to `CN1CCN(c2nc3nnnn3c3ccccc23)CC1`, for which the T/C (endpoint: mean survival time, dose: 50.0 mg/kg/injection, schedule: Q04DX003 (ip), vehicle: saline) was 101 % of control; the T/C (endpoint: mean survival time, dose: 100.0 mg/kg/injection, schedule: Q04DX003 (ip), vehicle: saline) was 104 % of control; the T/C (endpoint: mean survival time, dose: 200.0 mg/kg/injection, schedule: Q04DX003 (ip), vehicle: saline) was 101 % of control.
Consider `COCCCCO`, for which the T/C is, setting by setting: (endpoint: mean survival time, dose: 50.0 mg/kg/injection, schedule: Q01DX009 (ip), vehicle: saline with Tween-80) 97 % of control; (endpoint: mean survival time, dose: 100.0 mg/kg/injection, schedule: Q01DX009 (ip), vehicle: saline with Tween-80) 97 % of control; under setting [2], 90 % of control.
As to `O=C(Nc1ccc(NC(=O)C(Cl)Cl)cc1)C(Cl)Cl`, the T/C by setting is: (endpoint: mean survival time, dose: 100.0 mg/kg/injection, schedule: Q04DX003 (ip), vehicle: Klucel (hydroxypropylcellulose) (HPC)) 97 % of control; (endpoint: mean survival time, dose: 200.0 mg/kg/injection, schedule: Q04DX003 (ip), vehicle: Klucel (hydroxypropylcellulose) (HPC)) 101 % of control; (endpoint: mean survival time, dose: 400.0 mg/kg/injection, schedule: Q04DX003 (ip), vehicle: Klucel (hydroxypropylcellulose) (HPC)) 90 % of control.
Take `CCCCCCNC1=C(c2ccccc2)C(=O)C(NCCCCCC)=C(c2ccccc2)C1=O`: the T/C is 88 % of control under setting [3], 94 % of control under setting [4] and 96 % of control under setting [5].
In the case of `O=C[C@@H](CO)O[C@H](C=O)n1cnc2c(=O)[nH]cnc21`, the T/C reads like this: (endpoint: mean survival time, dose: 35.0 mg/kg/injection, schedule: Q01DX009 (ip), vehicle: saline) 116 % of control; (endpoint: mean survival time, dose: 35.0 mg/kg/injection, schedule: Q01DX009 (ip), vehicle: water) 122 % of control; (endpoint: mean survival time, dose: 35.0 mg/kg/injection, schedule: Q01DX Z (ip), vehicle: water) 120 % of control; (endpoint: mean survival time, dose: 70.0 mg/kg/injection, schedule: Q01DX009 (ip), vehicle: saline) 188 % of control; (endpoint: mean survival time, dose: 70.0 mg/kg/injection, schedule: Q01DX009 (ip), vehicle: water) 155 % of control; (endpoint: mean survival time, dose: 79.0 mg/kg/injection, schedule: Q01DX009 (oral), vehicle: saline) 93 % of control. Besides, the T/C was 167 % of control (endpoint: mean survival time, dose: 80.0 mg/kg/injection, schedule: Q01DX009 (ip), vehicle: saline); 219 % of control (endpoint: mean survival time, dose: 98.0 mg/kg/injection, schedule: Q01DX006 (ip), vehicle: saline); 227 % of control (endpoint: mean survival time, dose: 98.0 mg/kg/injection, schedule: Q ##X009 (ip), vehicle: saline); 227 % of control (endpoint: mean survival time, dose: 98.0 mg/kg/injection, schedule: Q## X Z (ip), vehicle: saline); 110 % of control (endpoint: mean survival time, dose: 119.0 mg/kg/injection, schedule: Q01DX009 (oral), vehicle: saline); 167 % of control and 188 % of control (endpoint: mean survival time, dose: 120.0 mg/kg/injection, schedule: Q01DX009 (ip), vehicle: saline). In addition, the T/C runs as follows: (endpoint: mean survival time, dose: 125.0 mg/kg/injection, schedule: Q01DX009 (ip), vehicle: saline with Tween-80) 161 % of control; (endpoint: mean survival time, dose: 140.0 mg/kg/injection, schedule: Q01DX006 (ip), vehicle: saline) 205 % of control; (endpoint: mean survival time, dose: 140.0 mg/kg/injection, schedule: Q01DX009 (ip), vehicle: saline) 176 % of control and 184 % of control; (endpoint: mean survival time, dose: 140.0 mg/kg/injection, schedule: Q01DX009 (ip), vehicle: water) 250 % of control; (endpoint: mean survival time, dose: 140.0 mg/kg/injection, schedule: Q01DX Z (ip), vehicle: water) 253 % of control; (endpoint: mean survival time, dose: 140.0 mg/kg/injection, schedule: Q ##X009 (ip), vehicle: saline) 246 % of control. Moreover, the T/C (endpoint: mean survival time, dose: 140.0 mg/kg/injection, schedule: Q## X Z (ip), vehicle: saline) is 246 % of control; the T/C (endpoint: mean survival time, dose: 150.0 mg/kg/injection, schedule: Q01DX009 (ip), vehicle: saline with Tween-80) is 206 % of control; the T/C (endpoint: mean survival time, dose: 175.0 mg/kg/injection, schedule: Q01DX009 (ip), vehicle: saline with Tween-80) is 215 % of control; the T/C (endpoint: mean survival time, dose: 178.0 mg/kg/injection, schedule: Q01DX009 (oral), vehicle: saline) is 102 % of control; the T/C (endpoint: mean survival time, dose: 180.0 mg/kg/injection, schedule: Q01DX009 (ip), vehicle: saline) is 227 % of control and 251 % of control; the T/C under setting [2] is 439 % of control. Besides, the T/C reads like this: (endpoint: mean survival time, dose: 200.0 mg/kg/injection, schedule: Q04DX003 (ip), vehicle: saline with Tween-80) 165 % of control; (endpoint: mean survival time, dose: 225.0 mg/kg/injection, schedule: Q01DX009 (ip), vehicle: saline with Tween-80) 427 % of control; (endpoint: mean survival time, dose: 250.0 mg/kg/injection, schedule: Q04DX003 (ip), vehicle: saline with Tween-80) 172 % of control; (endpoint: mean survival time, dose: 267.0 mg/kg/injection, schedule: Q01DX009 (oral), vehicle: saline) 110 % of control; (endpoint: mean survival time, dose: 270.0 mg/kg/injection, schedule: Q01DX009 (ip), vehicle: saline) 182 % of control; (endpoint: mean survival time, dose: 280.0 mg/kg/injection, schedule: Q01DX009 (ip), vehicle: saline) 89 % of control. For the same compound, the T/C is 245 % of control (endpoint: mean survival time, dose: 300.0 mg/kg/injection, schedule: Q04DX003 (ip), vehicle: saline with Tween-80); 318 % of control (endpoint: mean survival time, dose: 350.0 mg/kg/injection, schedule: Q04DX003 (ip), vehicle: saline with Tween-80); 102 % of control (endpoint: mean survival time, dose: 400.0 mg/kg/injection, schedule: Q01DX009 (oral), vehicle: saline); 401 % of control (endpoint: mean survival time, dose: 400.0 mg/kg/injection, schedule: Q04DX003 (ip), vehicle: saline with Tween-80); 104 % of control (endpoint: mean survival time, dose: 600.0 mg/kg/injection, schedule: Q01DX009 (oral), vehicle: saline); 166 % of control (endpoint: median survival time, dose: 108.0 mg/kg/injection, schedule: Q01DX009 (ip), vehicle: water). Besides, the T/C (endpoint: median survival time, dose: 180.0 mg/kg/injection, schedule: Q01DX009 (ip), vehicle: water) is 461 % of control.
Regarding `Oc1ccc(Br)cc1Sc1cc(Br)ccc1O`, the T/C under setting [3] was 100 % of control; the T/C under setting [1] is 97 % of control; the T/C under setting [4] is 103 % of control; the T/C (endpoint: mean survival time, dose: 200.0 mg/kg/injection, schedule: Q01DX001 (ip), vehicle: saline) was 95 % of control; the T/C under setting [5] was 95 % of control; the T/C (endpoint: mean survival time, dose: 400.0 mg/kg/injection, schedule: Q01DX001 (ip), vehicle: saline) was 95 % of control.
